Source: patent US6326465A, “Immunomodulatory polypeptides derived from the invariant chain of MHC class II” (The Johns Hopkins University, priority 1998, dated 2001)

Assays:
[1] = tested on: Lewis syngeneic PHA blasts; assay: Lysis of PHA lymphoblast target cells by syngeneic GVHD effector T cells; format: cell-based, rat; settings: target cells loaded with 10 uM; versus diluent treated target cells
Description: FIG. 1. Graph showing comparison of percent specific lysis conferred by truncated variants of CLIP. Lewis syngeneic PHA blasts were force-loaded with the truncated variants of CLIP (10 μmol/L, 1 hr, 4° C.) prior to assay. Effector T cells (nylon wool nonadherent) were derived from animals with syngeneic GVHD that were clonally expanded in thymectomized secondary Lewis recipients.
Truncated peptides from the rat MHC Class II invariant chain V0 : (sequence aa 82-103 […] (SEQ ID NO:1)), V1: aa 90-104 (SEQ ID NO:2), V2: 86-100 (SEQ ID NO:3), V3: 90-100(SEQ ID NO:4) were synthesized by Quality Controlled Biochemicals Co. (Hopkinton, Ma.) and purified by HPLC.^15,23 The peptides (>92% purity) were dissolved in RPMI 1640 prior to use. Force loading of CLIP was accomplished by incubating the cells in 10 μM of the peptide for 1 hr. at 4° C. […] Antibody was prepared to the CLIP peptide by Quality Controlled Biochemicals Co. The peptides were conjugated to keyhole limpet hemocyanin (KLH). Rabbits were immunized with the peptide-KLH conjugate. The antibody was affinity purified using peptide conjugated sepharose matrix columns.
We first evaluated whether CLIP in rats is recognized by the autoreactive T cells associated with CsA-induced syngeneic GVHD by comparing the lysis of target cells after various pretreatment conditions.
Target cells were loaded with the CLIP variants (10 uM) and evaluated for […]

tumor cells = assay: Cytokine modulation of CsA-induced SGVHD in the rat model; format: in vivo; settings: for cure of animals: animals given 5×10^3 tumor cells; for enhancement of the antitumor effect of SGVHD: rat model
target cells = format: cell-based, rat
CRL 1662 myeloma cells = assay: Antitumor activity after adoptive transfer of syngeneic GVHD effector T cells; format: in vivo, rat; settings: with syngeneic GVHD effector cells; […]10^4 CRL 1662 cells; cytokines for ten days
Description: Nylon wool nonadherent spleen cells (50×10^6) from Lou M animals with syngeneic GVHD were adoptively transferred into secondary Lou M recipients (irradiated, bone marrow reconstituted) challenged with 2.5×10^4 CRL 1662 myeloma cells. […] Survival was assessed and log tumor cell kill was estimated from dose response studies (see Table 6).

Substance | cure of animals (tumor cells) | enhancement of the antitumor effect of SGVHD (tumor cells) | other results
KPCSP(R) |  |  | Enhancement of Target Cell Recognition [1]: +++ (enhancement representing at least a >25% increase in specific killing)
interferon-α | about half | 1-2 logs | 
staphylococcal enterotoxin β [SEB] |  |  | ability of effector T lymphocytes to recognize and lyse the target cells (target cells): completely inhibited; preventing recognition and lysis (target cells): ineffective
γ-interferon: cytokine, 50,000 U/d | about half | 1-2 logs | Estimated Log Tumor Cell Kill (CRL 1662 myeloma cells): 2.5-3.0
